Results taken from patent publication US20230146422A1, “ANIMAL MODEL FOR STUDYING CANCER IMMUNOTHERAPY” (ONCOFACTORY, priority 2020, published 2023).

Legend:
[1] = test system: CD4 and CD8 T cells of grafted human PBMCs; test: Activation and exhaustion markers on T cells of PBMCs grafted or co-grafted with MDAMB436 cells in avian embryo, with or without Keytruda (FIG. 11C); assay type: in vivo; conditions: FACS 48 hours post-grafting
Procedure: (11C) PBMC were co-grafted with tumoral cells: Pmela (a PDL1 negative cell line) or MDAMB436 (a PDL1 weak positive cell line).
Markers of activation (CD69, HLADR on the left) and exhaustion (CTLA4, PD1, on the right) were determined in PBMCs after co-grafting with human tumoral cells (Pmela or MDAM) in an avian embryo. Values are expressed in frequency over CD4+ and CD8+ populations in ratios of total identified lymphocytes (CD3+CD4+ and CD3+CD8+). Standard Deviations show data from a pool of PBMC from different healthy donors. Left Graph: CD4+, right graph: CD8+.
Then, MDAMB436 cells or Pmela cells were co-grafted with human PBMC cells.
At two days (48 hours) post-grafting, PBMCs were isolated from grafted embryos and analyzed by FACS.
Finally, grafted PBMCs were isolated by Percoll density separation and stained cells for markers of activation (CD69/HLADR) and exhaustion (CTLA4/PD1).
Standard Deviations show data from a pool of PBMC from different healthy donors. Values are expressed in ratios of the specific marker over CD3+CD4+ and CD3+CD8+ populations.

MDAMB 231 tumoral cells = test: Tumor volume in avian embryo co-grafted with MDAMB 231 cells and human PBMCs (FIG. 12B); assay type: in vivo; conditions: MDAMB 231 + human PBMCs co-graft, vs NaCl, raw and BSA-normalized
Procedure: (§1) The same experiment of example 9 was performed with other cancer cells: • MDAMB 231, well-known to be responsive to immunotherapy, and • a tumor sample issued from a patient affected by a metastatic melanoma.

[2] = test system: T lymphocytes of PBMCs co-grafted with MDAMD231 tumoral cells; test: Activation and exhaustion markers on immune cells co-grafted with MDAMD231 cells in avian embryo, Keytruda treatment (FIG. 11D); assay type: in vivo, human; conditions: PBMCs co-grafted with MDAMD231, Keytruda 5 mg/ml, 24 hours, vs NaCl
Source text: Expression of activation and exhaustion markers on co-grafted immune cells was quantified.

[3] = test system: tumor sample from a patient affected by a metastatic melanoma; test: Metastasis number and volume in avian embryo co-grafted with human PBMCs and patient metastatic melanoma sample (FIG. 12C); assay type: in vivo; conditions: patient metastatic melanoma sample + human PBMCs co-graft, vs NaCl
Procedure: Metastasis number (on the left) and volume of metastatic tumors (in the middle) have been assessed. On the right, pictures show the extension of the tumor after NaCl treatment (on top) and after Keytruda treatment (on the bottom).
as §1
Also, the number of metastases formed by patient tumoral cells in the avian embryonic tissues has been assessed by the following of fluorescently-labelled tumor cells, and subsequent quantification of the fluorescent signal in the embryo.

[4] = test system: human melanoma A375 cell line; test: Tumor volume in avian embryo co-grafted with A375 melanoma cells and human PBMCs (FIG. 12A); assay type: in vivo; conditions: A375 + human PBMCs co-graft, Keytruda injected 24 hours post-grafting, vs excipient, two to three days post-grafting
Procedure: To determine whether tumors composed of mixed human tumoral cells and immune cells are sensitive to anti-PD1 antibody treatment, the human melanoma A375 cell line was selected for the experiments. Indeed, this cell line was recently reported to express significant levels of PDL1 and to respond to anti-PD1 immunotherapy (Kuryk L, Møller A W, Jaderberg M, 2019).
A375 melanoma cells were cultured and co-grafted with human PBMC cells as previously described.
Two to three days post-grafting, embryos were collected and processed for imaging with a confocal light sheet microscope. The volume of the tumors was quantified using IMARIS software.

For Pemzolibrumab [Keytruda], the “levels of CTLA4 on the CD8 compartment” value ([1]; embryo treated 24 hours with Keytruda (PD1 blocking)) was “very high levels”, the “PD1 expression/accessibility on CD8 T cells” value ([1]; embryo treated 24 hours with Keytruda) was “minimization” and the tumor volume (MDAMB 231 tumoral cells) was “significant reduction”. The “expression of exhaustion marker PD1” value [2] was “decreased”, the “expression of exhaustion marker TIM-3” value [2] was “decreased” and the “metastasis number (ability of tumor cells to metastasis)” value [3] was “significantly decreased”. The metastatic-volume [3] was “significant reduction” and the “volume of the tumor” value [4] was “decreases significantly”.
